# Source: patent US20120309622A1, “HERBICIDES CONTAINING SUBSTITUTED THIEN-3-YL-SULPHONYLAMINIO(THIO)CARBONYL-TRIAZOLIN(ETHI)ONES” (BAYER INTELLECTUAL PROPERTY GMBH, priority 2001, published 2012)
# Columns and labels:
# Format in all cases: in vivo
# Ipomoea hederacea = test: Post-emergence test/greenhouse, % damage after three weeks
# Text: (§1) The expected action for a given combination of two herbicides can be calculated as follows (cf. COLBY, S. R.: “Calculating synergistic and antagonistic responses of herbicide combinations”, Weeds 15, pages 20-22, 1967):
# (§2) If • X=% damage by herbicide A (active compound of the formula I) at an application rate of p kg/ha and • Y=% damage by herbicide B (active compound of the formula II) at an application rate of q kg/ha and • E=the expected damage of herbicides A+B at an application rate of p+q kg/ha, then
# (§3) If the actual damage exceeds the calculated value, the combination has a superadditive effect, that is to say a synergistic effect.
# (§4) Test plants are grown under control conditions (temperature and light). Once the plants have reached a height of 5 to 15 cm, the test compound or the combination of test compounds is applied by spraying such that the particular amounts of active compound desired are applied per unit area. The concentration of the spray liquor is chosen so that the particular amounts of active compound desired are applied in 500 litres of water/ha.
# (§5) Following the spray application, the plant containers are kept in the greenhouse under constant light and temperature conditions.
# (§6) After three weeks, the degree of damage to the plants is rated in % damage in comparison to the development of the untreated control.
# (§7) The figures denote: • 0%=no effect (like untreated control) • 100%=total destruction
# Veronica persicaria = test: as above
# Experimental: as §1, §3
# (§8) Test plants are grown under control conditions (temperature and light).
# as §5, §6
# Bromus secalinus = test: as above
# Experimental: as §1, §3, §8, §5, §6
# Viola arvensis = test: as above; settings: 15 g of ai/ha
# Text: as §1, §2, §3, §4, §5, §6, §7
# Digitaria sanguinalis = test: as above
# Text: as §1, §2, §3, §4, §5, §6, §7
# Polygonum convolvolus = test: as above
# Cyperus esculentus = test: as above; settings: 8 g of ai/ha
# Text: as §1, §2, §3, §4, §5, §6, §7
# Eriochloa villosa = test: as above; settings: 15 g of ai/ha
# Matricaria inodora = test: as above
# Text: as §1, §2, §3, §4, §5, §6, §7
# Galium aparine = test: as above
# Xanthium strumarium = test: as above
# Text: as §1, §2, §3, §4, §5, §6, §7
# Avena fatua = test: as above
# Text: as §1, §2, §3, §4, §5, §6, §7
# Abutilon theophrasti = test: as above
# Text: as §1, §2, §3, §4, §5, §6, §7
# Cassia tora = test: as above
# Experimental: as §1, §3, §8, §5, §6
# Chenopodium album = test: as above
# Text: as §1, §2, §3, §4, §5, §6, §7
# test plants = test: Post-emergence test/greenhouse, % damage after three weeks (further test plants, Tables A-1-30 to A-1-104)
# Text: as §1, §2, §3, §4, §5, §6, §7
# [1] = application rate 125 g of ai/ha
molecule,measurement,setting,value
"CCOC(=O)[C@@H](C)Oc1ccc(Oc2nc3ccc(Cl)cc3o2)cc1 [fenoxaprop-(P)-ethyl, reference compound]",Ipomoea hederacea observed,Ipomoea hederacea; 30 g of ai/ha,0%
same,Veronica persicaria observed,Veronica persicaria; 8 g of ai/ha,0%
same,Veronica persicaria observed,Veronica persicaria; 15 g of ai/ha,0%
same,Veronica persicaria observed,Veronica persicaria; 30 g of ai/ha,0%
same,Bromus secalinus observed,Bromus secalinus; 8 g of ai/ha,0%
same,Bromus secalinus observed,Bromus secalinus; 15 g of ai/ha,0%
same,Bromus secalinus observed,Bromus secalinus; 30 g of ai/ha,0%
"COc1nn(C(=O)NS(=O)(=O)c2ccccc2OC(F)(F)F)c(=O)n1C.[Na] [flucarbazone-sodium, 4,5-dihydro-3-methoxy-4-methyl-5-oxo-N-[(2-trifluoromethoxyphenyl)-sulphonyl]-1-H-1,2,4-triazole-1-carboxamide sodium salt, reference compound]",Viola arvensis observed,Viola arvensis,30%
same,Veronica persicaria observed,Veronica persicaria; 30 g of ai/ha,20%
same,Veronica persicaria observed,Veronica persicaria; 60 g of ai/ha,60%
same,Bromus secalinus observed,Bromus secalinus; 60 g of ai/ha,70%
"COC(=O)c1ccc(C(F)(F)F)nc1S(=O)(=O)NC(=O)Nc1nc(OC)cc(OC)n1.[Na] [flupyrsulfuron, N-(4,6-dimethoxypyrimidin-2-yl)-N′-(3-methoxycarbonyl-6-trifluoromethylpyridin-2-ylsulphonyl)urea sodium salt, reference compound]",Digitaria sanguinalis observed,Digitaria sanguinalis; 4 g of ai/ha,20%
same,pest or weed control at 2 g/ha,"Bromus secalinus; Bromus secalinus, post-emergence, 504 h, 2 g of ai/ha, read-out: Bromus secalinus observed",0%
same,pest or weed control at 4 g/ha,"Bromus secalinus; Bromus secalinus, post-emergence, 504 h, 4 g of ai/ha, read-out: Bromus secalinus observed",0%
same,Polygonum convolvolus observed,Polygonum convolvolus; 2 g of ai/ha,70%
same,Polygonum convolvolus observed,Polygonum convolvolus; 4 g of ai/ha,80%
COc1cc(OC)nc(NC(=O)NS(=O)(=O)c2cc(NC=O)ccc2C(=O)N(C)C)n1 [foramsulfuron],Ipomoea hederacea observed,Ipomoea hederacea; 15 g of ai/ha,80%
same,Cyperus esculentus observed,Cyperus esculentus,80%
same,Eriochloa villosa observed,Eriochloa villosa,60%
Cc1cc(Cl)ccc1O[C@@H](C)C(=O)O [mecoprop-P],Digitaria sanguinalis observed,Digitaria sanguinalis; 125 g of ai/ha,40%
same,Digitaria sanguinalis observed,Digitaria sanguinalis; 250 g of ai/ha,70%
same,Matricaria inodora observed,Matricaria inodora; 125 g of ai/ha,0%
same,Matricaria inodora observed,Matricaria inodora; 250 g of ai/ha,0%
same,Galium aparine observed,Galium aparine; 125 g of ai/ha,20%
same,Galium aparine observed,Galium aparine; 250 g of ai/ha,40%
"COc1cc(OC)n2nc(S(=O)(=O)Nc3c(Cl)ccc(C)c3Cl)nc2n1 [metosulam, N-(2,6-dichloro-3-methylphenyl)-5,7-dimethoxy-1,2,4-tri-azolo[1,5-a]-pyrimidine-2-sulphonamide, reference compound]",Digitaria sanguinalis observed,Digitaria sanguinalis; 8 g of ai/ha,30%
same,Activity against Xanthium strumarum (%),Xanthium strumarium; 12.5 g of a.i./ha,60%
same,Activity against Xanthium strumarum (%),Xanthium strumarium; 25 g of a.i./ha,90%
same,Avena fatua observed,Avena fatua; 8 g of ai/ha,0%
same,Activity against Abutilon theophrasti (%),Abutilon theophrasti; 12.5 g of a.i./ha,60%
same,Activity against Abutilon theophrasti (%),Abutilon theophrasti; 25 g of a.i./ha,70%
same,Veronica persicaria observed,Veronica persicaria; 4 g of ai/ha,80%
CCCOc1nn(C(=O)[N-]S(=O)(=O)c2ccccc2C(=O)OC)c(=O)n1C.[Na+] [propoxycarbazone-sodium],Veronica persicaria observed,Veronica persicaria; 60 g of ai/ha,40%
same,Cassia tora observed,Cassia tora; 30 g of ai/ha,30%
same,Polygonum convolvolus observed,Polygonum convolvolus; 30 g of ai/ha,0%
same,Polygonum convolvolus observed,Polygonum convolvolus; 60 g of ai/ha,0%
CCS(=O)(=O)c1cccnc1S(=O)(=O)NC(=O)Nc1nc(OC)cc(OC)n1 [rimsulfuron],Avena fatua observed,Avena fatua; 4 g of ai/ha,70%
same,Avena fatua observed,Avena fatua; 8 g of ai/ha,70%
same,Abutilon theophrasti observed,Abutilon theophrasti; 4 g of ai/ha,70%
same,Cassia tora observed,Cassia tora; 4 g of ai/ha,60%
same,Cassia tora observed,Cassia tora; 8 g of ai/ha,80%
flufenacet,Chenopodium album observed,Chenopodium album; application rate 30 g of ai/ha,0%
same,Chenopodium album observed,Chenopodium album; application rate 60 g of ai/ha,0%
same,Chenopodium album observed,Chenopodium album; [1],0%
same,Polygonum convolvolus observed,test plants; application rate 30 g of ai/ha,0%
same,Polygonum convolvolus observed,test plants; application rate 60 g of ai/ha,0%
same,Polygonum convolvolus observed,test plants; [1],0%
same,Bromus secalinus observed,Bromus secalinus; application rate 30 g of ai/ha,0%
same,Bromus secalinus observed,Bromus secalinus; application rate 60 g of ai/ha,20%
same,Bromus secalinus observed,Bromus secalinus; [1],40%
